{
  "source": "paper PMC10411625",
  "about": "“Rationally designed stapled peptides allosterically inhibit PTBP1–RNA-binding” (Chemical Science, 2023)",
  "molecular_target": "T1, PTBP1 RRM12-L151G (Homo sapiens, UniProt P26599, L151G)",
  "T1 construct": "(P57-V265); MBP (from pMAL vector); His tag; made in house; host or cells: E. coli BL21 DE3 RIL",
  "T1 sequence (P26599 57-265 L151G)": "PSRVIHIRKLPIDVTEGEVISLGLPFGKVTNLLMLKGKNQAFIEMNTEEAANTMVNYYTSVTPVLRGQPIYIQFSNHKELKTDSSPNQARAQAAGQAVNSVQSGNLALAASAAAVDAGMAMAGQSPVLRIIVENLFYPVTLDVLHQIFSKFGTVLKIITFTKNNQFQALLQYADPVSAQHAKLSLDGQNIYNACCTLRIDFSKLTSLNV",
  "assay": "Competitive fluorescence polarization assay, RRM12-L151G and RNA-2",
  "type": "binding",
  "conditions": "Fig. 3C; competitive FP with RNA-2; read-out: P-6 Ki, construct RRM12-L151G",
  "description": "Different PTBP1 variants were used to investigate the mode of action of P-6via competitive FP experiments. As illustrated in Fig. 1A there is a short linker between RRM1 and the α3-helix which also makes contacts with the RNA. It is possible that when P-6 occupies the binding site of the helix, this linker is displaced disrupting its interactions with the RNA and lowering the RNA-binding affinity. To test this, we measured whether P-6 could inhibit RRM1 RNA-binding. […] Therefore, it seems most likely that P-6 inhibits RRM12 via disturbing the coordinated RNA-binding of the two RRM domains. As this is possibly regulated by the helix we tested if the peptide could inhibit RRM12–L151G where the role of the helix is reduced (Fig. 3C and S5 ^†). […] These findings further support a mode of action where P-6 disturbs coordinated RNA-binding by RRM1 and 2. […]\nsize exclusion chromatography (Superdex 75 16/60 or 26/60) with SEC buffer (50 mM Tris, 200 mM NaCl). Protein homogeneity was assessed by the size exclusion chromatogram and purity was checked by SDS-PAGE analysis to be >= 90%.\nThe gene encoding for SRSF1-RRM12 (1-195) was subcloned into pOPIN-His expression vector and expressed in E. coli BL21 (DE3). […]\nFluorescence polarization assay with PTBP1 […]",
  "note": "pKi: −log10 of the molar value.",
  "data": [
    {"smiles": "CC(=O)N[C@@H](CC(N)=O)C(=O)N[C@@H](CCC(N)=O)C(=O)N[C@@]1(C)CCCC=CCCCC2(CCCC=CCCC[C@](C)(C(=O)N[C@H](C(=O)N[C@@H](CC(N)=O)C(N)=O)C(C)C)NC(=O)[C@H](CCC(N)=O)NC(=O)[C@H](CC(C)C)NC(=O)[C@H](C)NC2=O)NC(=O)[C@H](CCC(N)=O)NC(=O)[C@H](C)NC(=O)[C@H](CCCNC(=N)N)NC1=O", "note": "(stereo partly shown) [Peptide P-6]", "values": [
      {"measurement": "pKi", "result": "< 3.12"}
    ]}
  ]
}
